Experimental data from publication PMC12420206, “The hypusine pathway in Ixodes ricinus: molecular cloning and validation of deoxyhypusine synthase as a novel target for drug discovery to treat and prevent vector borne diseases” (Frontiers in Cellular and Infection Microbiology, 2025).

Molecular target: T1, DHS (deoxyhypusine synthase) from Ixodes ricinus (Ixodes ricinus, UniProt A0A0K8RJK0)
T1 construct: cDNA from salivary gland RNA; pET-28a(+) N-terminal His tag/thrombin/T7 tag, removal not mentioned; E. coli BL21(DE3), Ni-NTA native purification
T1 sequence (A0A0K8RJK0 1-365): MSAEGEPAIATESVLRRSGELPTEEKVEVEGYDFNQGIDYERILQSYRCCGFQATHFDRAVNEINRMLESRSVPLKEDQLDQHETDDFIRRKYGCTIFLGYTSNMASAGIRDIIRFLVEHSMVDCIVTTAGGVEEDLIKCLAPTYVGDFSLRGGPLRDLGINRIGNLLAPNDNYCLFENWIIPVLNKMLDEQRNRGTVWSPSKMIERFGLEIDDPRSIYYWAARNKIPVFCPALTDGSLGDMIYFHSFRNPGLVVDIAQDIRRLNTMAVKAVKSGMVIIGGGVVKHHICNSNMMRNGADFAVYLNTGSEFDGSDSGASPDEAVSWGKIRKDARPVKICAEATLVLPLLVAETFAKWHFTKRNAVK
Assay: DHS activity assay, GC/MS detection of deoxyhypusine
Format: biochemical
Settings: 2.1 mM spermidine, co-substrate human eIF5A precursor 40 μg, 3 mM NAD, glycine NaOH buffer, 37 °C, 1 h; specific activity only

NCCCCNCCCN [spermidine]
DHS activity assay, GC/MS detection of deoxyhypusine: No DHS activity was detected in control experiments without either the precursor protein
